For data set [1] the following is noted: in vivo. As to the method: Bleeding time was compared for the cases where 20% ethanol seoritae extract, aspirin or clopidogrel was treated.
In data set [2] the test system is rats fed high-cholesterol diet. Description: Serum and liver lipid levels in high-cholesterol diet animal model. Type of data set: in vivo, rat. The conditions noted are these: 200 mg/kg orally, 4 weeks. As to the method:
8-week-old female rats weighing 250-300 g were kept in polycarbonate cages, 8 heads per cage, maintained at 22±2° C. and 55±15% relative humidity with 12/12-hr light/dark cycles. Normal diet or high-cholesterol diet was provided and water was given freely. Fenofibric acid (200 mg/kg) used for treatment of hyperlipidemia was suspended in 1% methyl cellulose (MC) and orally administered as a positive control. The seoritae extract (200 mg/kg) was orally administered once a day for 4 weeks. […] After the centrifugation, total cholesterol, LDL-cholesterol, HDL-cholesterol and triglyceride levels in the obtained serum were evaluated. The analysis was performed using an automated hematology analyzer and the Roche diagnostic kit. The result is shown in Table 17 (serum lipids) and Table 18 (liver lipids).

As for `COC(=O)[C@H](c1ccccc1Cl)N1CCc2sccc2C1` [clopidogrel], the “bleeding time (FIG. 18)” value in data set [1] is “significant increase of bleeding time”.
For `CC(C)(Oc1ccc(C(=O)c2ccc(Cl)cc2)cc1)C(=O)O` [Positive control, Fenofibric acid], in data set [2] (liver), the Total cholesterol is 15.43 ± 0.52 µg/mg and the Triglyceride stood at 185.39 ± 23.84 µg/mg. In data set [2] (serum), the HDL-cholesterol was 87.89 ± 6.84 mg/dL, the LDL-cholesterol is reported as 75.34 ± 2.80 mg/dL and the Total cholesterol is recorded as 112.42 ± 13.33 mg/dL.
In the case of `CC(=O)Oc1ccccc1C(=O)O` [aspirin], the “bleeding time (FIG. 18)” value in data set [1] was “significant increase of bleeding time”.

Values taken from patent publication US11197903B2, “Composition containing a bean extract for improving blood circulation and vascular health and method for improving blood circulation and vascular health” (AMOREPACIFIC CORPORATION, priority 2009, dated 2021).
